Data as given in patent US12268665B2, “Combination of immunotherapies with MDM2 inhibitors” (ASCENTAGE PHARMA (SUZHOU) CO., LTD., priority 2018, dated 2025).

How the values were obtained:
[1] = Phase I study APG-115-US-001: pharmacokinetics (LC/MS/MS, K2EDTA human plasma); assay type: in vivo; settings: dose range of 20-300 mg
Method: For PK study of APG-115, APG-115 in K2EDTA human plasma was determined using an LC/MS/MS method using D5-APG-115 as the internal standard (IS). APG-115 and the IS were extracted using protein precipitation extraction from human plasma. […] MS/MS detection was set at mass transitions of m/z 642.3→246.3 for APG-115 and m/z 647.4→246.1 for D5-APG-115 (IS) in TIS positive mode.

[2] = system: serum MIC-1 (PD marker of TP53 activation); assay: Phase I study APG-115-US-001: pharmacodynamics; assay type: in vivo, human; settings: within the dose range tested
Excerpt: This Phase I study (APG-115-US-001) was designed to assess safety, toxicity, pharmacokinetics (PK), pharmacodynamics (PD), and antitumor activity of APG-115 orally in patients with advanced solid tumors in US (NCT02935907).

serum MIC-1 = assay: Phase Ib/II study with pembrolizumab: pharmacodynamics; assay type: in vivo, human; settings: after APG-115 treatment, preliminary
Method: In the dose escalation study, APG-115 is combined with pembrolizumab of for the treatment of patients with metastatic solid tumor. Four dose levels of APG-115 are tested: 50, 100, 150, and 200 mg. APG-115 is administrated orally every other day (QOD) for consecutive 2 weeks of a 21-day-cycle. Pembrolizumab is administrated at 200 mg IV on day 1 of a 21-day-cycle. The primary objectives of the dose escalation study is to determine safety, tolerability, and determination of MTD and RP2D; other anti-tumor assessments (assessed per RECIST v1.1 every 6 weeks) are the secondary objectives.

[3] = system: serum MIC-1 (PD marker of TP53 activation); assay: Phase I study CTR20170975: pharmacodynamics; assay type: in vivo, human
Method: (§1) Patients with advanced soft tissue sarcoma (STS), adenoid cystic carcinoma (ACC) or other solid tumors in China (CTR20170975) were treated with APG-115. In dose escalation, patients received APG-115 (100-200 mg) orally QOD for first 21 days of a 28-day cycle, until disease progression. Study objectives include safety (primary endpoint), pharmacokinetics (PK), pharmacodynamics (PD), and antitumor activity assessed every 8 weeks.
(§2) This is a Phase I study (CTR20170975) is designed to assess the safety, dose-limiting toxicities (DLT), the maximum tolerated dose (MTD)/recommended phase 2 dose (RP2D), pharmacokinetics (PK), pharmacodynamics (PD) profile and anti-tumor activity of orally administered APG-115 in Chinese patients with advanced soft tissue sarcoma and other solid tumors.

[4] = Phase I study CTR20170975 in Chinese patients: safety; assay type: in vivo, human
Method: as §1, §2
Single dose escalation study was conducted. A standard “3+3” design was employed to determine the maximum tolerated dose (MTD) of APG-115 by assessing the dose limiting toxicity (DLT) of APG-115. Three dose levels of APG-115 was tested: 100, 150, 200 mg. APG-115 was administrated orally every other day (QOD) for a consecutive 3 weeks (i.e. dosed at Day 1, 3, 5, 7, 9, 11, 13, 15, 17, 19, and 21), with one week dosing off as 4-weeks a cycle. […] The scheme of the trial design is provided below.
This study was conducted with an initial dosage of […], according to the preliminary safety results in phase I study of APG-115 in the US.

[5] = system: advanced soft tissue sarcoma and other solid tumors; assay: Phase I study CTR20170975: antitumor activity; assay type: in vivo, human
Method: as §1, §2
Among of the 14 patients, post baseline tumor measurements were obtained in 13 patients, as one subject was just starting the treatment of Cycle 2.

[6] = system: tumor infiltrating cells in MH-22A syngeneic tumors; assay: TIL analysis by flow cytometry, p53 wt MH-22A syngeneic tumors; assay type: in vivo; settings: p53 wt MH-22A tumors
Method: The live/dead fixable dye (Invitrogen) was used to exclude dead cells. The FOXP3 kit from eBioscience was used for FOXP3 staining. Cells were washed and stained for 30 min on ice with indicated antibodies in MACS buffer or Brilliant staining buffer. Samples were than analyzed on Life Technology Attune NxT flow cytometer.
Mice were euthanized on day 7, and tumors were mechanically dissociated and digested with Collagenase IV (Sigma), hyaluronic acid (Sigma) and DNase (Sigma). Single-cell suspensions were prepared and stained against the indicated markers for flow cytometry analysis. Tumor samples were collected 24 hrs post last dosing.
On d7, when the mean tumor volume reached approximately 300-500 mm3, syngeneic tumors were collected and processed for TIL analysis. […] There were approximately a 1.5 to 2-fold increase relative to the control. […] Most strikingly, the frequency of M2 macrophages was reduced by the combined therapy in comparison with both control (P<0.01) and anti-PD-1 single agent groups (P<0.05).

Structure (SMILES): CCN1[C@@H](C(=O)NC23CCC(C(=O)O)(CC2)CC3)[C@H](c2cccc(Cl)c2F)[C@]2(C(=O)Nc3cc(Cl)ccc32)C12CCCCC2 [APG-115]
- AUC and Cmax versus dose [1]: generally increase dose proportionally
- Serum MIC-1 increase [2]: exposure dependent
- serum MIC-1 levels (serum MIC-1): elevated
- serum MIC-1 levels ([3]; APG-115 doses ≥100 mg, preliminary): elevated from individual baseline
- MIC-1 increase ([3]; within the dose range tested (Example 5)): exposure dependent
- Serum MIC-1 increase ([3]; within the dose range tested (Example 8)): exposure dependent
- MTD ([4]; QOD, 21 days on 7 days off): 150 mg
- Adverse Event: Abdominal distension ([4]; human, in vivo): 2 (14.3%)
- Adverse Event: Abdominal pain ([4]; human, in vivo): 2 (14.3%)
- Adverse Event: Anaemia ([4]; human, in vivo): 11 (78.6%)
- Adverse Event: Any AE ([4]; human, in vivo): 14 (100.0%)
- Adverse Event: Asthenia ([4]; human, in vivo): 2 (14.3%)
- Adverse Event: Blood alkaline phosphatase increased ([4]; human, in vivo): 2 (14.3%)
- Adverse Event: Blood creatinine increased ([4]; human, in vivo): 2 (14.3%)
- Adverse Event: Cancer pain ([4]; human, in vivo): 2 (14.3%)
- Adverse Event: Decreased appetite ([4]; human, in vivo): 2 (14.3%)
- Adverse Event: Febrile neutropenia ([4]; human, in vivo): 2 (14.3%)
- Adverse Event: Gamma-glutamyltransferase increased ([4]; human, in vivo): 4 (28.6%)
- Adverse Event: Headache ([4]; human, in vivo): 2 (14.3%)
- Adverse Event: Hypercholesterolaemia ([4]; human, in vivo): 8 (57.1%)
- Adverse Event: Hypertriglyceridaemia ([4]; human, in vivo): 5 (35.7%)
- Adverse Event: Hyperuricaemia ([4]; human, in vivo): 3 (21.4%)
- Adverse Event: Hypoalbuminaemia ([4]; human, in vivo): 7 (50.0%)
- Adverse Event: Hypokalaemia ([4]; human, in vivo): 3 (21.4%)
- Adverse Event: Insomnia ([4]; human, in vivo): 2 (14.3%)
- Adverse Event: Low density lipoprotein increased ([4]; human, in vivo): 2 (14.3%)
- Adverse Event: Nausea ([4]; human, in vivo): 5 (35.7%)
- Adverse Event: Neutrophil count decreased ([4]; human, in vivo): 5 (35.7%)
- Adverse Event: Oedemaperipheral ([4]; human, in vivo): 3 (21.4%)
- Adverse Event: Platelet count decreased ([4]; human, in vivo): 9 (64.3%)
- Adverse Event: Vomiting ([4]; human, in vivo): 8 (57.1%)
- Adverse Event: White blood cell count decreased ([4]; human, in vivo): 7 (50.0%)
- Grade 3 Adverse Event: Anaemia ([4]; human, in vivo): 5 (35.7%)
- Grade 3 Adverse Event: Any AE ([4]; human, in vivo): 10 (71.4%)
- Grade 3 Adverse Event: Blood creatinine increased ([4]; human, in vivo): 1 (7.1%)
- Grade 3 Adverse Event: Dyspnoea ([4]; human, in vivo): 1 (7.1%)
- Grade 3 Adverse Event: Febrile neutropenia ([4]; human, in vivo): 2 (14.3%)
- Grade 3 Adverse Event: Lipase increased ([4]; human, in vivo): 1 (7.1%)
- Grade 3 Adverse Event: Neutrophil count decreased ([4]; human, in vivo): 4 (28.6%)
- Grade 3 Adverse Event: Platelet count decreased ([4]; human, in vivo): 6 (42.9%)
- Grade 3 Adverse Event: Pulmonary embolism ([4]; human, in vivo): 1 (7.1%)
- Grade 3 Adverse Event: Ureteric obstruction ([4]; human, in vivo): 1 (7.1%)
- Grade 3 Adverse Event: Vomiting ([4]; human, in vivo): 2 (14.3%)
- Grade 3 Adverse Event: White blood cell count decreased ([4]; human, in vivo): 4 (28.6%)
- Grade 3 or 4 TRAE: anaemia ([4]; human, in vivo): 38.5%
- Grade 3 or 4 TRAE: leukopenia ([4]; human, in vivo): 30.8%
- Grade 3 or 4 TRAE: neutropenia ([4]; human, in vivo): 23.1%
- Grade 3 or 4 TRAE: thrombocytopenia ([4]; human, in vivo): 38.5%
- RP2D ([4]; human, in vivo): 100 mg
- SAE, % of pts ([4]; human, in vivo): 54%
- SAE, pts ([4]; human, in vivo): 7 pts
- most common Grade 3 or 4 AEs ([4]; human, in vivo): hematologic toxicities, particularly thrombocytopenia
- target lesion decrease in the PR patient ([5]; 150 mg, after 4 months withdraw, RECIST): ~64%
- confirmed PR (Partial Response), patients ([5]; 150 mg, lipomatoid liposarcoma, TP53-WT and MDM2 Amp): 1
- partial response, patients ([5]; 150 mg, liposarcoma with MDM2 amplification and TP53 wt (Example 5)): 1
- patients with SD as the best overall response ([5]; 13 patients (Example 5)): 5
- CD4+ T cells, NK cells, MDSCs, and regulatory T (Treg) cells [6]: no significant changes
